Results as given in PubChem BioAssay (NCI).
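Method: 48-hour compound exposure of cells in 96-well plates, five concentrations, linear interpolation of endpoints. Definition used: TGI = concentration required for complete inhibition of growth.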

Tests used:
Test in all cases: NCI tumour cell line growth inhibition, 48 h
SF-539 CNS = system: SF-539 CNS
KM20L2 colon = system: KM20L2 colon
HL-60(TB) leukemia = system: HL-60(TB) leukemia
TK-10 renal = system: TK-10 renal
SNB-75 CNS = system: SNB-75 CNS
MOLT-4 leukemia = system: MOLT-4 leukemia
SK-OV-3 ovarian = system: SK-OV-3 ovarian
SK-MEL-28 melanoma = system: SK-MEL-28 melanoma
NCI-H23 lung = system: NCI-H23 lung
SK-MEL-5 melanoma = system: SK-MEL-5 melanoma
DMS 273 small cell lung = system: DMS 273 small cell lung
OVCAR-3 ovarian = system: OVCAR-3 ovarian
SF-268 CNS = system: SF-268 CNS
RPMI-8226 leukemia = system: RPMI-8226 leukemia
NCI-H460 lung = system: NCI-H460 lung
LXFL 529 NSCLC = system: LXFL 529 NSCLC
SN12C renal = system: SN12C renal
IGROV1 ovarian = system: IGROV1 ovarian
COLO 205 colon = system: COLO 205 colon
SF-295 CNS = system: SF-295 CNS
HT29 colon = system: HT29 colon
SNB-78 CNS = system: SNB-78 CNS
CCRF-CEM leukemia = system: CCRF-CEM leukemia
CAKI-1 renal = system: CAKI-1 renal
HCT-15 colon = system: HCT-15 colon
M14 melanoma = system: M14 melanoma
SK-MEL-2 melanoma = system: SK-MEL-2 melanoma
HOP-18 NSCLC = system: HOP-18 NSCLC
U251 CNS = system: U251 CNS
SW-620 colon = system: SW-620 colon
A498 renal = system: A498 renal
ACHN renal = system: ACHN renal
UO-31 renal = system: UO-31 renal
K-562 leukemia = system: K-562 leukemia
UACC-62 melanoma = system: UACC-62 melanoma
RXF-631 renal = system: RXF-631 renal
M19-MEL melanoma = system: M19-MEL melanoma
EKVX NSCLC = system: EKVX NSCLC
HOP-92 NSCLC = system: HOP-92 NSCLC
NCI-H522 lung = system: NCI-H522 lung
NCI-H226 lung = system: NCI-H226 lung
DMS 114 small cell lung = system: DMS 114 small cell lung
SNB-19 CNS = system: SNB-19 CNS
OVCAR-8 ovarian = system: OVCAR-8 ovarian
MALME-3M melanoma = system: MALME-3M melanoma
LOX IMVI melanoma = system: LOX IMVI melanoma
XF 498 CNS = system: XF 498 CNS
OVCAR-5 ovarian = system: OVCAR-5 ovarian
SR leukemia = system: SR leukemia
KM12 colon = system: KM12 colon
HOP-62 NSCLC = system: HOP-62 NSCLC
OVCAR-4 ovarian = system: OVCAR-4 ovarian
A549 NSCLC = system: A549 NSCLC
UACC-257 melanoma = system: UACC-257 melanoma
786-0 renal = system: 786-0 renal
HCT-116 colon = system: HCT-116 colon
RXF 393 renal = system: RXF 393 renal

## Clc1ccc(C2SCc3nc4ccccc4n32)cc1 (centres undefined)
SF-539 CNS
  TGI: 76.8 µM
KM20L2 colon
  TGI: > 100 µM
HL-60(TB) leukemia
  TGI: 22.6 µM
TK-10 renal
  TGI: > 100 µM
SNB-75 CNS
  TGI: 24.9 µM
MOLT-4 leukemia
  TGI: 56.1 µM
SK-OV-3 ovarian
  TGI: 69.9 µM
SK-MEL-28 melanoma
  TGI: 68.1 µM
NCI-H23 lung
  TGI: 48.3 µM
SK-MEL-5 melanoma
  TGI: 23.3 µM
DMS 273 small cell lung
  TGI: 36.2 µM
OVCAR-3 ovarian
  TGI: > 100 µM
SF-268 CNS
  TGI: 88.4 µM
RPMI-8226 leukemia
  TGI: 44.1 µM
NCI-H460 lung
  TGI: 93.3 µM
LXFL 529 NSCLC
  TGI: 87.1 µM
SN12C renal
  TGI: 42.7 µM
IGROV1 ovarian
  TGI: 55.9 µM
COLO 205 colon
  TGI: 36.8 µM
SF-295 CNS
  TGI: > 100 µM
HT29 colon
  TGI: 49.4 µM
SNB-78 CNS
  TGI: > 100 µM
CCRF-CEM leukemia
  TGI: 78.9 µM
CAKI-1 renal
  TGI: 73.9 µM
HCT-15 colon
  TGI: > 100 µM
M14 melanoma
  TGI: 68.1 µM
SK-MEL-2 melanoma
  TGI: 33 µM
HOP-18 NSCLC
  TGI: > 100 µM
U251 CNS
  TGI: 66.2 µM
SW-620 colon
  TGI: > 100 µM
A498 renal
  TGI: 55.5 µM
ACHN renal
  TGI: > 100 µM
UO-31 renal
  TGI: 41.7 µM
K-562 leukemia
  TGI: > 100 µM
UACC-62 melanoma
  TGI: 43.6 µM
RXF-631 renal
  TGI: > 100 µM
M19-MEL melanoma
  TGI: 54.3 µM
EKVX NSCLC
  TGI: > 100 µM
HOP-92 NSCLC
  TGI: 22.3 µM
NCI-H522 lung
  TGI: 44.4 µM
NCI-H226 lung
  TGI: 75.4 µM
DMS 114 small cell lung
  TGI: 37.4 µM
SNB-19 CNS
  TGI: 77 µM
OVCAR-8 ovarian
  TGI: > 100 µM
MALME-3M melanoma
  TGI: 36.7 µM
LOX IMVI melanoma
  TGI: 40.6 µM
XF 498 CNS
  TGI: 27.5 µM

## O=C1c2ccccc2C(=O)N1CC#CCO
SF-539 CNS
  TGI: > 100 µM
HL-60(TB) leukemia
  TGI: > 100 µM
TK-10 renal
  TGI: > 100 µM
OVCAR-5 ovarian
  TGI: > 100 µM
MOLT-4 leukemia
  TGI: > 100 µM
SK-OV-3 ovarian
  TGI: > 100 µM
SK-MEL-28 melanoma
  TGI: > 100 µM
SR leukemia
  TGI: > 100 µM
NCI-H23 lung
  TGI: > 100 µM
SK-MEL-5 melanoma
  TGI: > 100 µM
DMS 273 small cell lung
  TGI: > 100 µM
KM12 colon
  TGI: > 100 µM
OVCAR-3 ovarian
  TGI: > 100 µM
HOP-62 NSCLC
  TGI: > 100 µM
SF-268 CNS
  TGI: > 100 µM
NCI-H460 lung
  TGI: > 100 µM
LXFL 529 NSCLC
  TGI: > 100 µM
SN12C renal
  TGI: > 100 µM
SF-295 CNS
  TGI: > 100 µM
HT29 colon
  TGI: > 100 µM
OVCAR-4 ovarian
  TGI: > 100 µM
SNB-78 CNS
  TGI: > 100 µM
CCRF-CEM leukemia
  TGI: > 100 µM
CAKI-1 renal
  TGI: > 100 µM
HCT-15 colon
  TGI: > 100 µM
M14 melanoma
  TGI: > 100 µM
SK-MEL-2 melanoma
  TGI: > 100 µM
U251 CNS
  TGI: > 100 µM
A549 NSCLC
  TGI: > 100 µM
SW-620 colon
  TGI: > 100 µM
A498 renal
  TGI: > 100 µM
ACHN renal
  TGI: > 100 µM
UO-31 renal
  TGI: > 100 µM
K-562 leukemia
  TGI: > 100 µM
UACC-257 melanoma
  TGI: > 100 µM
UACC-62 melanoma
  TGI: > 100 µM
RXF-631 renal
  TGI: > 100 µM
M19-MEL melanoma
  TGI: > 100 µM
EKVX NSCLC
  TGI: > 100 µM
NCI-H522 lung
  TGI: > 100 µM
NCI-H226 lung
  TGI: > 100 µM
786-0 renal
  TGI: > 100 µM
HCT-116 colon
  TGI: > 100 µM
SNB-19 CNS
  TGI: > 100 µM
OVCAR-8 ovarian
  TGI: > 100 µM
RXF 393 renal
  TGI: > 100 µM
XF 498 CNS
  TGI: > 100 µM
